Assay results published in PMC8997995, “Amphiphilic Cell-Penetrating Peptides Containing Natural and Unnatural Amino Acids as Drug Delivery Agents” (Cells, 2022).
Non-standard residues stand in square brackets, D forms with d. Residues, ends and D or L forms follow the SMILES beside them. Dip = N[C@H](C(=O)O)C(c1ccccc1)c1ccccc1

Key:
MDA-MB-231 cells = assay: Confocal microscopy of cellular uptake; type: cell-based, human; details: MDA-MB-231, F’-GpYEEI 2 µM + peptide 10 μM, 3 h, 37 °C
Experimental: Coverslips were placed in a 6-well plate wells and covered with 2 mL of media. Human epithelial mammary gland/breast adenocarcinoma cells (MDA-MB-231, ATCC No. HTB-26) were used. 200,000 cells per well were seeded with DMEM media low glucose (4 mM L-glutamine, 1000 mg/L glucose, and 110 mg/L sodium pyruvate) overnight on a cover glass in 6-well plates. The cells were treated with the physical mixture of F’-GpYEEI and [DipR]5 (10 μM) or F’-[K(DipR)5] in DMEM media low glucose without FBS and incubated for 3 h at 37 °C in a humidified atmosphere of 5% CO2. Next, the media was removed, and cells were washed three times with 2 mL PBS in each well. Cells were fixed in 2 mL of 3.7% formaldehyde for 10 min and were washed 3 times in PBS (pH 7.6). 1 mL of the Texas red solution was pipetted (40 µL of Texas Red and 100 mg BSA in 10 mL of PBS) in each well to stay for 1 h at room temperature. The cells were washed at least 3 times with 2 mL of PBS for 5 min. The nucleic staining with 13 µL of DAPI on each slide was completed. Cells were covered with a coverslip carefully without air bubbles. The slide dried horizontally overnight in a dark place that had airflow. The cells were photographed and video recorded by using Nikon Instruments A1 Confocal Laser Microscope Series. […]

[1] = Circular dichroism, estimate of secondary structure; type: physicochemical; details: CD, 100 µM peptide in water, principal component regression analysis
Experimental: Samples were prepared in 100 µM concentration dissolved in water only. The cuvette with the 1 mm path length was used for all the measurements. The circular dichroism analysis was performed with a J-1500 Jasco spectrophotometer using nitrogen gas and PM-539 detector. Parameters were selected as follows: data interval 0.1 nm, data points 701, data pitch 0.1 nm, CD scale 200 mdeg/0.1 dOD, FL scale 200 mdeg/0.1 dOD, D.I.T 2 s, bandwidth 1 nm, cell length 1 mm, start mode immediately, scanning mode continuous, scanning speed 50 nm/min, shutter control auto, and N2 flowmeter manual. An average of three readings between 190 and 260 nm were collected for each sample. The analysis was carried out using one of Multivariate Regression Analyses, which is Principal Component Regression (PCR) with a basis set containing 26 proteins reference under the following conditions: standardization of result 100, replaced negative value to zero, and rejection percentage of 1%.

[2] = Transmission electron microscopy, self-assembly; type: physicochemical; details: TEM, 30 μM, dried on grid overnight, not stained
Experimental: Transmission electron microscopy (TEM) was done on a LVEM 5D Microscope model (Delong instruments, Brno, Czech Republic) samples were prepared on an Ultrathin Carbon Film on Lacey Carbon Support Film with 400 mesh copper from Ted Pella. Dilute solutions of 30 μM concentration were used for the TEM analysis. Samples were dropped on grids, evaporated overnight, and not stained. They were incubated for approximately 2 h after thawing from a freezer (0 to −18 °C). Samples were air-dried, and images were obtained with a LVEM5 (Delong Instruments, US) 5 keV field emission gun. The camera was Zyla 5.5 Scientific CMOS with specifications of exposure 50–200 [ms], pixel readout 200 MHz—lowest noise, dynamic range 12-bit (low noise), and summing 1.

Dynamic light scattering = type: physicochemical; details: DLS, 10 µM, 25 °C
Experimental: The samples were prepared in 10 µM concentration and were incubated for approximately 2 h after thawing from a freezer (0 to −18 °C). Samples were analyzed by dynamic light scattering (DLS) for particle sizes and the polydispersity index (PI). The data were acquired by using a Zetasizer Nano ZS (Malvern, Worcestershire, UK), which has a 0.3 nm to 10 µm particle size range and was equipped with a laser beam (λ = 633 nm; 4 mW) and a scattered light detector positioned at an angle of 173° (noninvasive backscatter) in order to unmask scattered light signals of low intensity originated by the smaller particles. The analytical model was based on protein analysis. The sensitivity of the device is reported to be at 0.1 mg/mL (lysozyme). The refractive index and absorption were set at 1.450 and 0.001 for the material. The refractive index, viscosity, and temperature were set at 1.33, 0.8872, and 25 °C for dispersant. Particle sizes and PI measurements were made in disposable cuvettes (ZEN0040) at 25 °C and variable runs per measurement.

- Other (random coil) [1]: 49.9%
- Turn [1]: 16.6%
- α-helix [1]: 21.4%
- β-sheet [1]: 12.1%
- morphology of self-assembled structures [2]: aggregation
- size of self-assembled structures [2]: ≤ 30 nm
- Z average size (Dynamic light scattering): 200.6 nm
- polydispersity index (PI) (Dynamic light scattering): 0.359
Compound: N=C(N)NCCC[C@@H]1NC(=O)[C@H](C(c2ccccc2)c2ccccc2)NC(=O)[C@H](CCCNC(=N)N)NC(=O)[C@H](C(c2ccccc2)c2ccccc2)NC(=O)[C@H](CCCNC(=N)N)NC(=O)[C@H](C(c2ccccc2)c2ccccc2)NC(=O)[C@H](CCCNC(=N)N)NC(=O)[C@H](C(c2ccccc2)c2ccccc2)NC(=O)[C@H](CCCNC(=N)N)NC(=O)[C@H](C(c2ccccc2)c2ccccc2)NC1=O [[DipR]5] (cyclo([Dip]R[Dip]R[Dip]R[Dip]R[Dip]R))
- localization of F’-GpYEEI delivered by the peptide (MDA-MB-231 cells): mostly localized in the cytosol
